Molecular target: T1, COX-2 (Homo sapiens, UniProt P35354)
T1 construct: purchased Cayman Chemicals (Ann Arbor, Mich.)
T1 sequence (P35354 18-604): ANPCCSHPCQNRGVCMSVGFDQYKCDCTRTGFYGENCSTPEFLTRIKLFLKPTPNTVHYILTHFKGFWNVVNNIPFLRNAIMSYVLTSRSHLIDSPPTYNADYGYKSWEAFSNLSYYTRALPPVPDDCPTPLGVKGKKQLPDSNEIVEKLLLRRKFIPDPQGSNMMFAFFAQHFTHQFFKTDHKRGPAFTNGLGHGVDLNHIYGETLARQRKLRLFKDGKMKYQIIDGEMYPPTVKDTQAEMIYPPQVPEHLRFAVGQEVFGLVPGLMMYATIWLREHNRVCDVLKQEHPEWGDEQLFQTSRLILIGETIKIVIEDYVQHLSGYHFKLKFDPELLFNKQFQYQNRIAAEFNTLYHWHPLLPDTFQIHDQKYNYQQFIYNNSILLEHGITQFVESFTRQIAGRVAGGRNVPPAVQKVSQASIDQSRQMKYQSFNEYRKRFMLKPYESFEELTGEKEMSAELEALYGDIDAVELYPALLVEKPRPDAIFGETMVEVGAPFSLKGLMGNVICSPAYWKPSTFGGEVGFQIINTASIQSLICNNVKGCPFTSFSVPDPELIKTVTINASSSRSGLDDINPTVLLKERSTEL
Assay: COX-2 inhibition assay (Cayman Chemicals; prostaglandin production quantified by EIA)
Type: biochemical
Details: in words; known compounds of SRB Extract 1
Method: All reagents and solutions were prepared according to the protocols established by Cayman Chemicals (Ann Arbor, Mich.) for the COX-1 and COX-2 inhibition assays. Two procedures were utilized to assess the COX-1/COX-2-specific and non-specific activities.
Prostaglandin Production Inhibition: Extracts were diluted in dimethylsulfoxide (DMSO), and then diluted in reaction buffer so that the final concentration of DMSO was 1%. Reactions were either run with COX-1 or COX-2 in the presence of Heme. Wells containing potential inhibitors (SRB extracts), non-inhibitor (100% activity) or background wells (heat inactivated enzyme) along with appropriate blanks were prepared. Solutions were placed in a 37° C. incubator for 15 minutes prior to running the reaction. Arachidonic acid was added and mixed and the reaction proceeded for 2 minutes. The reaction was stopped by addition of 1 M HCl to each well, then reducing the Prostaglandin H2 product to ProstaglandinG F2, which was quantified using EIA.
Quantification of Prostaglandin with EIA: The EIA assay plate was provided in the Cayman Chemicals screening kit. Aliquots, 50 μL, of the reaction products (PGF2) from prostaglandin production were added to their respective wells. […] The color development was quantified at 409 nm in a Tecan M200 microplate reader.

Structure (SMILES)	COX-2 inhibition
CC1(C)C[C@@H](O)C[C@@]2(C)OC(=O)C=C12 [epiloliode, Epiloliolide]	strong
CCCc1ccccn1 [conyrin]	strong

— patent publication US20090285919A1, “Rice Bran Extracts for Inflammation and Methods of Use Thereof” (priority 2008, published 2009)
